Results reported in patent US7098169B2, “Herbicide-safener combination based on isoxazoline carboxylate safeners” (Bayer CropScience GmbH, priority 2001, dated 2006).

What was measured:
Type in all cases: in vivo
[1] = tested on: ZEAMA = Zea mays (maize); test: Post-emergence treatment, safening by (Ib), visual injury score in maize (Table 1)
Description: 3.2 Effect of the Herbicide and Effect of the Safener when Applied Pre-Emergence Seeds or rhizome pieces of mono- and dicotyledenous harmful plants and of crop plants are placed in sandy loam soil in plastic pots, covered with soil and cultivated in a greenhouse under good growth conditions. Alternatively, harmful plants encountered in paddy rice cultivation are cultivated in pots where the water level is up to 2 cm above the soil surface. Three weeks after sowing, the test plants are treated at the three-leaf stage. […] In a series of trials the ability of herbicides to be […] by safener (Ib) was evaluated.

[2] = tested on: TRZAS, Triticum aestivum (wheat); test: Pre-emergence application of herbicide-safener combination, visual injury score in wheat (Table 2); conditions: application rate 300 g a.i./ha
Description: (§1) The damage to the plants is assessed visually on a scale of 0–100% in comparison with control plants: • 0%=no noticeable effect in comparison with the untreated plant • 100%=the treated plant dies off. 3.2 Effect of the Herbicide and Effect of the Safener when Applied Pre-Emergence
(§2) Seeds or rhizome pieces of mono- and dicotyledonous harmful plants and of crop plants are placed in sandy loam soil in plastic pots of a diameter of 9 cm and covered with soil. Alternatively, harmful plants encountered in paddy rice cultivation are cultivated in water-saturated soil, where the amount of water poured into the pots is such that the water level is at the soil surface, or some millimeters above the soil surface. The herbicide/safener active compound combinations according to the invention, formulated in the form of emulsion concentrates, and, in parallel tests, the correspondingly formulated individual active compounds are then applied as emulsions to the surface of the soil cover in various dosages using an amount of water of 300 l/ha (converted), or, in the case of rice, are poured into the irrigation water. After the treatment, the pots are placed in a greenhouse and kept under good growth conditions for the weeds. […]

[3] = tested on: HORVS = Hordeum vulgare (barley); test: Pre-emergence application of herbicide-safener combination, visual injury score in barley (Table 3); conditions: application rate 300 g a.i./ha (herbicide alone)
Description: as §1, §2

Q: Which “% injury to ZEAMA” value ([1]; application rate 36 g a.i./ha) does the source give for CCOC(=O)C(Cl)Cc1cc(-n2nc(C)n(C(F)F)c2=O)c(F)cc1Cl (racemic) [(B4-1), ethyl (RS)-2-chloro-3-[2-chloro-5-(4-difluoromethyl-4,5-dihydro-3-methyl-5-oxo-1H-1,2,4-triazol-1-yl)-4-fluorophenyl]propionate] here?
A: 11%

Q: How did the “% injury to ZEAMA” value ([1]; application rate 10 g a.i./ha) turn out when COc1ncc(F)c2nc(S(=O)(=O)Nc3c(F)cccc3F)nn12 [(B1-1), N-(2,6difluorophenyl)-8-fluoro-5-methoxy-1,2,4-triazolo[1,5-c]pyrimidin-2-sulfonamide] was run?
A: 18%

Q: For CCOc1nc(F)cc2nc(S(=O)(=O)Nc3c(Cl)cccc3C(=O)OC)nn12 [(B1-2), methyl 3-chloro-(5-ethoxy-7-fluoro[1,2,4]triazole-[1,5-c]pyrimidin-2-ylsulfonamido)-benzoate], which “% injury to ZEAMA” value ([1]; application rate 30 g a.i./ha) is on record?
A: 32%

Q: O=C(O)COc1nc(Cl)c(Cl)cc1Cl [(B2-3), 3,5,6-trichloro-2-pyridyloxyacetic acid] was tested. Which “% injury to ZEAMA” value ([1]; application rate 420 g a.i./ha) did it give?
A: 22%

Q: How did the “% injury to ZEAMA” value ([1]; application rate 160 g a.i./ha) turn out when Nc1c(Cl)c(F)nc(OCC(=O)O)c1Cl [(B2-4), 4-amino-3,5-dichloro-6-fluoro-2-pyridyloxyacetic acid] was run?
A: 9%

Q: How did the “% injury to ZEAMA” value ([1]; application rate 560 g a.i./ha) turn out when CSc1nnc(C(C)(C)C)c(=O)n1N [(B3-1), 4-amino-6-tert-butyl-4,5-dihydro3-methylthio-1,2,4-triazin-5-one] was run?
A: 23%

Q: Which results are given for CCc1cccc(C)c1N(C(=O)CCl)[C@@H](C)COC [(B5-1)]?
A: % injury to TRZAS [2]: 70%; % injury to HORVS [3]: 15%
